Data from PubChem BioAssay AID248 (DTP/NCI, 2004).
Values joined by “and” are separate entries in the source; they are usually repeats but may differ in a detail not shown here. Identical values can stand only once. Toxic doses and inconclusive results are not listed. No stated cut-off is given here; in the data, active means T/C of 150% or more; inactive means T/C below 125%.

Tested on: L1210 leukemia ip in BDF1 mice, survival T/C
Test: NCI In Vivo Anticancer Drug Screen. Data for tumor model L1210 Leukemia (intraperitoneal) in B6D2F1 (BDF1) mice
Conditions: endpoint: mean survival time, higher = longer survival
How it was run: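 Tumor cells were implanted, animals were treated, and survival was followed. The result divides the treated measurement by the vehicle-control measurement.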

[1] = dose: 100.0 mg/kg/injection, schedule: Q01DX009 (ip), vehicle: saline with Tween-80
[2] = dose: 200.0 mg/kg/injection, schedule: Q01DX009 (ip), vehicle: saline with Tween-80
[3] = dose: 12.5 mg/kg/injection, schedule: Q01DX009 (ip), vehicle: Klucel (hydroxypropylcellulose) (HPC)
[4] = dose: 25.0 mg/kg/injection, schedule: Q01DX009 (ip), vehicle: Klucel (hydroxypropylcellulose) (HPC)
[5] = dose: 50.0 mg/kg/injection, schedule: Q01DX009 (ip), vehicle: Klucel (hydroxypropylcellulose) (HPC)
[6] = dose: 100.0 mg/kg/injection, schedule: Q01DX001 (ip), vehicle: Klucel (hydroxypropylcellulose) (HPC)
[7] = dose: 100.0 mg/kg/injection, schedule: Q01DX009 (ip), vehicle: Klucel (hydroxypropylcellulose) (HPC)
[8] = dose: 200.0 mg/kg/injection, schedule: Q01DX001 (ip), vehicle: Klucel (hydroxypropylcellulose) (HPC)
[9] = dose: 200.0 mg/kg/injection, schedule: Q01DX009 (ip), vehicle: Klucel (hydroxypropylcellulose) (HPC)
[10] = dose: 100.0 mg/kg/injection, schedule: Q01DX009 (ip), vehicle: saline
[11] = dose: 100.0 mg/kg/injection, schedule: Q04DX003 (ip), vehicle: Klucel (hydroxypropylcellulose) (HPC)
[12] = dose: 200.0 mg/kg/injection, schedule: Q04DX003 (ip), vehicle: Klucel (hydroxypropylcellulose) (HPC)
[13] = dose: 400.0 mg/kg/injection, schedule: Q04DX003 (ip), vehicle: Klucel (hydroxypropylcellulose) (HPC)

Measured: T/C

Cc1ccc(S(=O)(=O)N2CCN(S(=O)(=O)c3ccc(C)c([N+](=O)[O-])c3)CC2)cc1[N+](=O)[O-]
inactive: dose: 3.12 mg/kg/injection, schedule: Q01DX009 (ip), vehicle: clinical formulation 103 % of control | dose: 6.25 mg/kg/injection, schedule: Q01DX009 (ip), vehicle: clinical formulation 100 % of control | dose: 6.25 mg/kg/injection, schedule: Q04DX003 (ip), vehicle: clinical formulation 103 % of control | dose: 12.5 mg/kg/injection, schedule: Q01DX009 (ip), vehicle: clinical formulation 107 % of control | dose: 12.5 mg/kg/injection, schedule: Q04DX003 (ip), vehicle: clinical formulation 108 % of control | dose: 25.0 mg/kg/injection, schedule: Q01DX009 (ip), vehicle: clinical formulation 115 % of control | dose: 25.0 mg/kg/injection, schedule: Q04DX003 (ip), vehicle: clinical formulation 116 % of control | dose: 50.0 mg/kg/injection, schedule: Q01DX009 (ip), vehicle: clinical formulation 95 % of control | dose: 50.0 mg/kg/injection, schedule: Q04DX003 (ip), vehicle: clinical formulation 124 % of control

C[CH2][Pb]([CH2]C)([CH2]C)[N]1C(=O)c2c(Cl)c(Cl)c(Cl)c(Cl)c2C1=O
inactive: dose: 12.5 mg/kg/injection, schedule: Q04DX002 (ip), vehicle: Klucel (hydroxypropylcellulose) (HPC) 107 % of control

Cc1cccc(C(C#N)(CCC#N)N2CCOCC2)n1 (stereo unspecified)
inactive: dose: 50.0 mg/kg/injection, schedule: Q01DX009 (ip), vehicle: saline with Tween-80 91 % of control | [1] 98 % of control | [2] 94 % of control

CCOC(=O)C1(C(C)C)OC2(O)C3CCCN3C(=O)C(C(C)C)N2C1=O (stereo unspecified)
inactive: dose: 3.12 mg/kg/injection, schedule: Q03HX024 (ip), vehicle: Klucel (hydroxypropylcellulose) (HPC) 98 % of control | dose: 6.25 mg/kg/injection, schedule: Q03HX024 (ip), vehicle: Klucel (hydroxypropylcellulose) (HPC) 97 % of control | dose: 8.25 mg/kg/injection, schedule: Q01DX009 (ip), vehicle: Klucel (hydroxypropylcellulose) (HPC) 97 % of control | [3] 98 % of control | dose: 12.5 mg/kg/injection, schedule: Q03HX024 (ip), vehicle: Klucel (hydroxypropylcellulose) (HPC) 98 % of control | dose: 16.5 mg/kg/injection, schedule: Q01DX009 (ip), vehicle: Klucel (hydroxypropylcellulose) (HPC) 99 % of control | dose: 25.0 mg/kg/injection, schedule: Q01DX001 (ip), vehicle: Klucel (hydroxypropylcellulose) (HPC) 95 % of control | [4] 109 % of control | dose: 25.0 mg/kg/injection, schedule: Q03HX024 (ip), vehicle: Klucel (hydroxypropylcellulose) (HPC) 100 % of control | dose: 25.0 mg/kg/injection, schedule: Q04DX003 (ip), vehicle: alcohol 97 % of control | dose: 33.0 mg/kg/injection, schedule: Q01DX009 (ip), vehicle: Klucel (hydroxypropylcellulose) (HPC) 100 % of control | dose: 50.0 mg/kg/injection, schedule: Q01DX001 (ip), vehicle: Klucel (hydroxypropylcellulose) (HPC) 101 % of control | [5] 105 % of control | dose: 50.0 mg/kg/injection, schedule: Q03HX024 (ip), vehicle: Klucel (hydroxypropylcellulose) (HPC) 93 % of control | dose: 50.0 mg/kg/injection, schedule: Q04DX003 (ip), vehicle: alcohol 106 % of control | dose: 66.0 mg/kg/injection, schedule: Q01DX009 (ip), vehicle: Klucel (hydroxypropylcellulose) (HPC) 98 % of control | [6] 95 % of control | [7] 100 % of control | dose: 100.0 mg/kg/injection, schedule: Q04DX003 (ip), vehicle: alcohol 96 % of control | [8] 104 % of control | [9] 98 % of control | dose: 200.0 mg/kg/injection, schedule: Q04DX003 (ip), vehicle: alcohol 98 % of control

COC(=O)c1ccc(OCCOc2ccc(C(C)(C)CC(C)(C)C)cc2)c([N+](=O)[O-])c1
inactive: dose: 100.0 mg/kg/injection, schedule: Q04DX003 (ip), vehicle: saline with Tween-80 91 % of control | dose: 200.0 mg/kg/injection, schedule: Q04DX003 (ip), vehicle: saline with Tween-80 93 % of control | dose: 400.0 mg/kg/injection, schedule: Q04DX003 (ip), vehicle: saline with Tween-80 91 % of control

CCOc1ncnc2c1ncn2-c1cccc(C)c1
inactive: dose: 50.0 mg/kg/injection, schedule: Q01DX001 (ip), vehicle: carboxymethylcellulose (CMC) 98 % of control | dose: 100.0 mg/kg/injection, schedule: Q01DX001 (ip), vehicle: carboxymethylcellulose (CMC) 110 % of control | dose: 200.0 mg/kg/injection, schedule: Q01DX001 (ip), vehicle: carboxymethylcellulose (CMC) 101 % of control | dose: 400.0 mg/kg/injection, schedule: Q01DX001 (ip), vehicle: carboxymethylcellulose (CMC) 98 % of control

O=[N+]([O-])c1cccc(P(=O)(c2cccc([N+](=O)[O-])c2)c2cccc([N+](=O)[O-])c2)c1
inactive: [10] 101 % of control | dose: 100.0 mg/kg/injection, schedule: Q04DX003 (ip), vehicle: saline 93 % of control | dose: 200.0 mg/kg/injection, schedule: Q01DX009 (ip), vehicle: saline 101 % of control | dose: 200.0 mg/kg/injection, schedule: Q04DX003 (ip), vehicle: saline 104 % of control | dose: 400.0 mg/kg/injection, schedule: Q01DX009 (ip), vehicle: saline 95 % of control | dose: 400.0 mg/kg/injection, schedule: Q04DX003 (ip), vehicle: saline 106 % of control

Cc1ccccc1/[N+]([O-])=C/c1ccccc1
inactive: [6] 104 % of control | [11] 103 % of control | [8] 104 % of control | [9] 93 % of control | [12] 102 % of control | dose: 400.0 mg/kg/injection, schedule: Q01DX001 (ip), vehicle: Klucel (hydroxypropylcellulose) (HPC) 101 % of control | dose: 400.0 mg/kg/injection, schedule: Q01DX009 (ip), vehicle: Klucel (hydroxypropylcellulose) (HPC) 104 % of control | [13] 102 % of control

COc1cccc2cc(C3(c4ccccc4)OC(=O)c4ccccc43)ccc12 (stereo unspecified)
inactive: dose: 100.0 mg/kg/injection, schedule: Q01DX001 (ip), vehicle: other 90 % of control | dose: 200.0 mg/kg/injection, schedule: Q01DX001 (ip), vehicle: other 94 % of control | dose: 400.0 mg/kg/injection, schedule: Q01DX001 (ip), vehicle: other 95 % of control

O=C(CCCN1CCC(n2c(=O)[nH]c3ccccc32)CC1)c1ccc(F)cc1
inactive: dose: 6.25 mg/kg/injection, schedule: Q01DX009 (ip), vehicle: Klucel (hydroxypropylcellulose) (HPC) 92 % of control | [3] 113 % of control | dose: 12.5 mg/kg/injection, schedule: Q01DX009 (ip), vehicle: saline 102 % of control | [4] 120 % of control | dose: 25.0 mg/kg/injection, schedule: Q01DX009 (ip), vehicle: saline 110 % of control | dose: 25.0 mg/kg/injection, schedule: Q04DX003 (ip), vehicle: Klucel (hydroxypropylcellulose) (HPC) 98 % of control and 90 % of control | [5] 96 % of control | dose: 50.0 mg/kg/injection, schedule: Q01DX009 (ip), vehicle: saline 93 % of control | dose: 50.0 mg/kg/injection, schedule: Q04DX003 (ip), vehicle: Klucel (hydroxypropylcellulose) (HPC) 96 % of control | [10] 93 % of control | [11] 91 % of control and 111 % of control | [12] 110 % of control | [13] 97 % of control

O=[N+]([O-])c1ccc(Oc2ccc(Br)cc2)cc1
inactive: [11] 104 % of control | [12] 104 % of control | [13] 93 % of control

CCc1ccccc1NC(=O)Sc1cccc(C)c1
inactive: [4] 96 % of control | [5] 96 % of control | [7] 98 % of control and 103 % of control | [11] 100 % of control | [12] 105 % of control

Cc1ccc(S(=O)(=O)N(CCCc2c(-c3ccccc3)nc(N)[nH]c2=O)c2ccccc2)cc1
inactive: dose: 100.0 mg/kg/injection, schedule: Q01DX009 (ip), vehicle: gum acacia 101 % of control | dose: 200.0 mg/kg/injection, schedule: Q01DX009 (ip), vehicle: gum acacia 100 % of control | dose: 400.0 mg/kg/injection, schedule: Q01DX009 (ip), vehicle: gum acacia 99 % of control

NCC(=O)Nc1ccc(Cl)cc1C(=O)c1ccc[nH]1
inactive: [1] 93 % of control | [2] 87 % of control | dose: 400.0 mg/kg/injection, schedule: Q01DX009 (ip), vehicle: saline with Tween-80 90 % of control
